Test results as given in patent US10131652B2, “Pyrimidinyloxy benzene derivatives as herbicides” (E. I. DU PONT DE NEMOURS AND COMPANY, priority 2014, dated 2018).

Tests used:
Type in all cases: in vivo
[1] = test system: blackgrass (Alopecurus myosuroides); assay: Test B postemergence plant response
Summary of the method: (§1)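 Visual injury rating, 0–100 (0 = no effect, 100 = complete control), vs untreated controls ~10 days after postemergence spray; greenhouse; potted loam soil/sand; plants 2–10 cm, 1–2 leaf stage.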

[2] = test system: galium (catchweed bedstraw, Galium aparine); assay: Test B postemergence plant response
Summary of the method: as §1

[3] = test system: barnyardgrass (Echinochloa crus-galli); assay: Test C flooded paddy test plant response; conditions: Flood, 250 g ai/ha; scale of 0 to 100 where 0 is no effect and 100 is complete control; 13 to 15 days
Summary of the method: (§2)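 Greenhouse paddy assay, 13–15 days. Treatment into 3 cm floodwater over 2-leaf plants; visual 0–100 rating against controls.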

rice (Oryza sativa) = assay: Test C flooded paddy test plant response; conditions: Flood, 250 g ai/ha; scale of 0 to 100 where 0 is no effect and 100 is complete control; 13 to 15 days
Summary of the method: as §2

[4] = test system: small-flower umbrella sedge (Cyperus difformis); assay: Test C flooded paddy test plant response; conditions: Flood, 250 g ai/ha; scale of 0 to 100 where 0 is no effect and 100 is complete control; 13 to 15 days
Summary of the method: as §2

[5] = test system: ducksalad (Heteranthera limosa); assay: Test C flooded paddy test plant response; conditions: Flood, 250 g ai/ha; scale of 0 to 100 where 0 is no effect and 100 is complete control; 13 to 15 days
Summary of the method: as §2

corn (Zea mays) = assay: Test B pre-/postemergence plant response
Summary of the method: (§3)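 Steps: plant seeds in loam soil–sand mix; spray soil preemergence, and in parallel spray 2–10 cm one- to two-leaf plants postemergence; hold ~10 days in greenhouse; visually rate injury against untreated controls (0 = no effect, 100 = complete control).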

[6] = test system: ragweed (common ragweed, Ambrosia elatior); assay: Test B pre-/postemergence plant response
Summary of the method: as §3

[7] = test system: barnyardgrass (Echinochloa crus-galli); assay: Test B pre-/postemergence plant response
Summary of the method: as §3

[8] = test system: giant foxtail (Setaria faberii); assay: Test B pre-/postemergence plant response
Summary of the method: as §3

[9] = test system: Italian ryegrass (Lolium multiflorum); assay: Test B pre-/postemergence plant response
Summary of the method: as §3

[10] = test system: wheat (Triticum aestivum); assay: Test B pre-/postemergence plant response
Summary of the method: as §3

kochia (Kochia scoparia) = assay: Test B pre-/postemergence plant response
Summary of the method: as §3

[11] = test system: pigweed (Amaranthus retroflexus); assay: Test B pre-/postemergence plant response
Summary of the method: as §3

[12] = 31 g ai/ha, Postemergence, 0 to 100 scale, 0 no effect, 100 complete control
[13] = 125 g ai/ha, postemergence, 0 to 100 scale, 0 no effect, 100 complete control
[14] = 31 g ai/ha, Preemergence, 0 to 100 scale where 0 is no effect and 100 is complete control
[15] = Preemergence, 125 g ai/ha, 0 to 100 scale where 0 is no effect and 100 is complete control
[16] = Postemergence, 500 g ai/ha, 0 to 100 scale (0 no effect, 100 complete control)
[17] = Preemergence, 500 g ai/ha, 0 to 100 scale where 0 is no effect and 100 is complete control
[18] = Preemergence, 31 g ai/ha, 0 to 100 scale (0 no effect, 100 complete control)
[19] = Postemergence, 31 g ai/ha, 0 to 100 scale (0 no effect, 100 complete control)
[20] = Preemergence, 125 g ai/ha, 0 to 100 scale (0 no effect, 100 complete control)

Fc1ccc(Oc2ncc(Cl)cn2)c(-c2cc(C(F)F)on2)c1Br [Compound 114]
Plant response rating, Blackgrass [1, 12]: 10
Plant response rating, Blackgrass [1, 13]: 40
Plant response rating, Galium [2, 12]: 70
Plant response rating, Galium [2, 13]: 100
Barnyardgrass plant response rating [3]: 0
Rice plant response rating (rice (Oryza sativa)): 15
Sedge, Umbrella plant response rating [4]: 75
Ducksalad plant response rating [5]: 75
Plant response rating, Corn (corn (Zea mays); [12]): 30
Plant response rating, Corn (corn (Zea mays); [13]): 50
Plant response rating, Ragweed [6, 12]: 0
Plant response rating, Ragweed [6, 14]: 0
Plant response rating, Ragweed [6, 13]: 20
Plant response rating, Barnyardgrass [7, 12]: 10
Plant response rating, Barnyardgrass [7, 14]: 0
Plant response rating, Barnyardgrass [7, 13]: 20
Plant response rating, Barnyardgrass [7, 15]: 20
Plant response rating, Foxtail, Giant [8, 12]: 20
Plant response rating, Foxtail, Giant [8, 14]: 10
Plant response rating, Foxtail, Giant [8, 13]: 60
Plant response rating, Foxtail, Giant [8, 15]: 30
Plant response rating, Ryegrass, Italian [9, 12]: 10
Plant response rating, Ryegrass, Italian [9, 14]: 0
Plant response rating, Ryegrass, Italian [9, 13]: 60
Plant response rating, Wheat [10, 12]: 10
Plant response rating, Wheat [10, 13]: 20
Plant response rating, Kochia (kochia (Kochia scoparia); [12]): 70
Plant response rating, Kochia (kochia (Kochia scoparia); [14]): 20
Plant response rating, Kochia (kochia (Kochia scoparia); [13]): 90
Plant response rating, Kochia (kochia (Kochia scoparia); [15]): 20
Plant response rating, Pigweed [11, 12]: 100
Plant response rating, Pigweed [11, 14]: 70
Plant response rating, Pigweed [11, 13]: 100

Cn1nnnc1-c1ccccc1Oc1ncc(Cl)cn1 [Compound 47]
Plant response rating, Blackgrass [1, 13]: 0
Plant response rating, Blackgrass [1, 16]: 0
Plant response rating, Galium [2, 13]: 30
Plant response rating, Galium [2, 16]: 60
Barnyardgrass plant response rating [3]: 0
Rice plant response rating (rice (Oryza sativa)): 0
Sedge, Umbrella plant response rating [4]: 0
Ducksalad plant response rating [5]: 0
Plant response rating, Corn (corn (Zea mays); [13]): 0
Plant response rating, Corn (corn (Zea mays); [16]): 0
Plant response rating, Ragweed [6, 13]: 20
Plant response rating, Ragweed [6, 16]: 30
Plant response rating, Ragweed [6, 15]: 10
Plant response rating, Ragweed [6, 17]: 60
Plant response rating, Barnyardgrass [7, 13]: 0
Plant response rating, Barnyardgrass [7, 16]: 0
Plant response rating, Barnyardgrass [7, 15]: 0
Plant response rating, Barnyardgrass [7, 17]: 0
Plant response rating, Foxtail, Giant [8, 13]: 0
Plant response rating, Foxtail, Giant [8, 16]: 50
Plant response rating, Foxtail, Giant [8, 15]: 10
Plant response rating, Foxtail, Giant [8, 17]: 30
Plant response rating, Ryegrass, Italian [9, 13]: 0
Plant response rating, Ryegrass, Italian [9, 16]: 0
Plant response rating, Ryegrass, Italian [9, 15]: 0
Plant response rating, Ryegrass, Italian [9, 17]: 0
Plant response rating, Wheat [10, 13]: 0
Plant response rating, Wheat [10, 16]: 10
Plant response rating, Kochia (kochia (Kochia scoparia); [13]): 60
Plant response rating, Kochia (kochia (Kochia scoparia); [16]): 80
Plant response rating, Kochia (kochia (Kochia scoparia); [15]): 60
Plant response rating, Kochia (kochia (Kochia scoparia); [17]): 70
Plant response rating, Pigweed [11, 13]: 50
Plant response rating, Pigweed [11, 16]: 70
Plant response rating, Pigweed [11, 15]: 30
Plant response rating, Pigweed [11, 17]: 60

CC(C)n1cnc(-c2ccccc2Oc2ncc(Cl)cn2)n1 [Compound 73]
Plant response rating, Blackgrass [1, 12]: 0
Plant response rating, Blackgrass [1, 13]: 0
Plant response rating, Galium [2, 12]: 0
Plant response rating, Galium [2, 13]: 10
Barnyardgrass plant response rating [3]: 0
Rice plant response rating (rice (Oryza sativa)): 0
Sedge, Umbrella plant response rating [4]: 0
Ducksalad plant response rating [5]: 0
Plant response rating, Corn (corn (Zea mays); [12]): 0
Plant response rating, Corn (corn (Zea mays); [13]): 0
Plant response rating, Ragweed [6, 12]: 0
Plant response rating, Ragweed [6, 13]: 0
Ragweed plant response rating [6, 18]: 0
Plant response rating, Ragweed [6, 15]: 0
Plant response rating, Barnyardgrass [7, 12]: 0
Plant response rating, Barnyardgrass [7, 13]: 0
Barnyardgrass plant response rating [7, 18]: 0
Plant response rating, Barnyardgrass [7, 15]: 0
Plant response rating, Foxtail, Giant [8, 12]: 0
Plant response rating, Foxtail, Giant [8, 13]: 0
Foxtail, Giant plant response rating [8, 18]: 0
Plant response rating, Foxtail, Giant [8, 15]: 0
Plant response rating, Ryegrass, Italian [9, 12]: 0
Plant response rating, Ryegrass, Italian [9, 13]: 0
Ryegrass, Italian plant response rating [9, 18]: 0
Plant response rating, Ryegrass, Italian [9, 15]: 0
Plant response rating, Wheat [10, 12]: 0
Plant response rating, Wheat [10, 13]: 0
Plant response rating, Kochia (kochia (Kochia scoparia); [12]): 0
Plant response rating, Kochia (kochia (Kochia scoparia); [13]): 0
Kochia plant response rating (kochia (Kochia scoparia); [18]): 0
Plant response rating, Kochia (kochia (Kochia scoparia); [15]): 0
Plant response rating, Pigweed [11, 12]: 0
Plant response rating, Pigweed [11, 13]: 10
Pigweed plant response rating [11, 18]: 0
Plant response rating, Pigweed [11, 15]: 0

Cc1ccnc(-c2ccccc2Oc2ncc(Cl)cn2)c1 [Compound 187]
Plant response rating, Blackgrass [1, 13]: 0
Plant response rating, Blackgrass [1, 19]: 0
Plant response rating, Galium [2, 13]: 0
Plant response rating, Galium [2, 19]: 0
Barnyardgrass plant response rating [3]: 0
Rice plant response rating (rice (Oryza sativa)): 0
Sedge, Umbrella plant response rating [4]: 0
Ducksalad plant response rating [5]: 50
Plant response rating, Corn (corn (Zea mays); [13]): 0
Plant response rating, Corn (corn (Zea mays); [19]): 0
Plant response rating, Ragweed [6, 14]: 0
Plant response rating, Ragweed [6, 13]: 0
Plant response rating, Ragweed [6, 19]: 0
Ragweed plant response rating [6, 20]: 0
Plant response rating, Barnyardgrass [7, 14]: 0
Plant response rating, Barnyardgrass [7, 13]: 0
Plant response rating, Barnyardgrass [7, 19]: 0
Barnyardgrass plant response rating [7, 20]: 0
Plant response rating, Foxtail, Giant [8, 14]: 0
Plant response rating, Foxtail, Giant [8, 13]: 0
Plant response rating, Foxtail, Giant [8, 19]: 0
Foxtail, Giant plant response rating [8, 20]: 0
Plant response rating, Ryegrass, Italian [9, 14]: 0
Plant response rating, Ryegrass, Italian [9, 13]: 0
Plant response rating, Ryegrass, Italian [9, 19]: 0
Ryegrass, Italian plant response rating [9, 20]: 0
Plant response rating, Wheat [10, 13]: 0
Plant response rating, Wheat [10, 19]: 0
Plant response rating, Kochia (kochia (Kochia scoparia); [14]): 0
Plant response rating, Kochia (kochia (Kochia scoparia); [13]): 0
Plant response rating, Kochia (kochia (Kochia scoparia); [19]): 0
Kochia plant response rating (kochia (Kochia scoparia); [20]): 0
Plant response rating, Pigweed [11, 14]: 0
Plant response rating, Pigweed [11, 13]: 0
Plant response rating, Pigweed [11, 19]: 0
Pigweed plant response rating [11, 20]: 0
